Measurements taken from patent publication EP3031808B1, “SALT OF IDELALISIB” (ratiopharm GmbH, priority 2014, dated 2016).
Where two headings read alike, the source gives them in different places.

What was measured:
[1] = solubilities of salts of idelalisib in buffers and selected media
[2] = cited from earlier work
[3] = water demin. (pH dep.), 15 min.
[4] = water demin. (pH dep.), 60 min.

Compound	solubilities ([1]; 0,01m HCl pH ∼2,2, 15 min.)	solubilities ([1]; 0,01m HCl pH ∼2,2, 60 min.)	solubilities ([1]; 20mM NaOAc pH 4.5, 15 min.)	solubilities ([1]; 20mM NaOAc pH 4.5, 60 min.)	solubilities ([1]; 50mM KH2PO4 pH 6.8, 15 min.)	solubilities ([1]; 50mM KH2PO4 pH 6.8, 60 min.)	solubilities ([1]; 0.1 % TPGS (FaSSIF), 15 min.)	solubilities ([1]; 0.1 % TPGS (FaSSIF), 60 min.)	solubilities ([1]; 2.0% TPGS (FeSSIF), 15 min.)	solubilities ([1]; 2.0% TPGS (FeSSIF), 60 min.)	solubility compared to the free base of idelalisib ([1]; general statement)	solubilities [1, 3]	solubilities [1, 4]	solubility in water ([2]; water at pH 1.2)	solubility in water ([2]; water at pH 7)
Maleate	2.445	2.655	0.411	0.475	0.355	0.393	0.662	1.121	6.798	6.984	increased	1.934	2.095	–	–
CC[C@H](Nc1ncnc2[nH]cnc12)c1nc2cccc(F)c2c(=O)n1-c1ccccc1 [Base, 5-fluoro-3-phenyl-2-[(1S)-1-(9H-purin-6-ylamino)propyl]quinazolin-4(3H)-one]	0.947	1.051	0.092	0.100	0.086	0.088	0.141	0.107	1.056	1.172	–	0.098	0.081	soluble	practically insoluble
